Patent US6369066B1, “Substituted 1,3-oxathiolanes with antiviral properties” (BioChem Pharma, Inc., priority 1990, dated 2002)
Values after ≈ are worked out from the molar mass of the structure shown. Read-outs that look alike come from different tables or passages of the source.

Assays:
Assay type in all cases: cell-based
[1] = tested on: HIV-1 strain RF; test: Formazan (MTT) assay on MT-4 cells, anti-HIV-1 antiviral activity; settings: Human immunodeficiency virus 1, MT4, 168 h, MT-4 cells infected with HIV-1 strain RF, 7 days, read-out: IC50 (50% anti-viral dose, ID 50%)
Method: Formazan Assay on MT-4 and 3TC™-Resistant Cell Lines
(§1) Anti-HIV-1 antiviral activity was determined in MT-4 calls and MT-4 cells that have been made resistant to 3TC™. A suspension of cells (approximately 10^6 cells/ml) in RPMI 1640 growth medium was infected with HIV-1 strain RF at a M.O.I. of 10^−3 infectious units/cell. An uninfected cell suspension was prepared in parallel to evaluate drug-induced cytotoxicity. The two suspensions were incubated for 90 minutes at room temperature. Test compounds were serially diluted in 10-fold decrements from 100 μg/ml to 0.01 μg/ml (final concentrations in two 96 well microtitre plates. 20 μl of infected cell suspension were inoculated into each well of one of the plates (anti-viral), while 20 μl of uninfected cell suspension were added to each well of the second plate (cytotoxicity). The plates were then incubated for 7 days at 37° C. After incubation, 10 μl of 3-(4,5-dimethylthiazol-2-yl)-2,5-diphenyltetrazolium bromide (MTT) at 20 mg/ml was added to all wells and the plates incubated for a further 90 minutes at 37° C.
150 μl of 10% (v/v) alcoholic Triton X-100 was then added and the cells resuspended. After 15 minutes at room temperature, the plates were analyzed in a Multiskan MC reader at 405 nm. Conversion of yellow MMT to its formazan derivative is maximum in uninfected cells, and absent in untreated infected cells. The optical density values for the cytotoxicity controls and the antiviral test wells were graphically plotted and the dose of compounds required to inhibit the conversion of MMT to 50% of the untreated uninfected controls was calculated. In this way, both the 50% cytotoxic dose (CD 50%) and the 50% anti-viral dose (ID 50%) can be calculated.

[2] = tested on: H9; test: Cell culture inhibitory dose (CCID50) in H9; settings: cell counting, trypan blue exclusion, 7 days post drug treatment
Method: (§2) Evaluation of Cell Culture Inhibitory Dose (CCID50)
(§3) Cell growth was determined by cell counting and viability by trypan blue exclusion 7 days post drug treatment. CCID50 is expressed as the drug concentration which inhibits 50% of cell growth.

[3] = tested on: MT-4; test: Cell culture inhibitory dose (CCID50) in MT-4; settings: cell counting, trypan blue exclusion, 7 days post drug treatment
Method: as §2, §3

[4] = tested on: MT-4 cells; test: Formazan (MTT) assay, drug-induced cytotoxicity in uninfected MT-4 cells; settings: human, 7 days
Method: as §1, with “A suspension of cells (approximately 10^6 cells/ml) in RPMI 1640 growth medium was infected with HIV-1 strain RF at a M.O.I. of 10^−3 infectious units/cell.” left out
150 μl of 10% (v/v) alcoholic Triton X-100 was then added and the cells resuspended. After 15 minutes at room temperature, the plates were analyzed in a Multiskan MC reader at 405 nm. […] The optical density values for the cytotoxicity controls and the antiviral test wells were graphically plotted and the dose of compounds required to inhibit the conversion of MMT to 50% of the untreated uninfected controls was calculated.

[5] = tested on: cord blood mononuclear cells (CBM); test: Cytotoxicity (CD50) reported with CBM assay
Method: Assays on cord blood mononuclear cells were done substantially as described in Gu et al., J. Virol.
In short, viruses (HTLV-IIIB) that had initially been grown on MT-4 cells were passaged onto phytohemaglutinin-prestimulated cord blood mononuclear cells (CBM). For subsequent analysis, samples of CBM (5×10^5 cells per mL) were pretreated with various concentrations of the different compounds for 4 h and were then inoculated with CBL-grown HIV-1 at a multiplicity of infection of 1.0 in the concentration of the compound used for the pretreatment. Fresh medium, including the appropriate concentration of the compound was added three times weekly, and fresh phytohemaglutinin-prestimulated CBM (5×10^5 cells per mL) were added at 2-day intervals. […] 66: 12-19.

[6] = tested on: U937; test: Cell culture inhibitory dose (CCID50) in U937; settings: cell counting, trypan blue exclusion, 7 days post drug treatment
Method: as §2, §3

[7] = tested on: HIV-1 (strain RF); test: Inhibition of syncytium formation in C8166 cells
Method: Inhibition of Syncytium Formation
C8166 cells were infected with HIV-1 (strain RF) at a moil of 1×10^−3 infectious units/cell and adsorbed at room temperature for 60 minutes. After adsorption, the cells were washed three times in growth medium. Aliquots of 10^5 cells were added to each well of 24-well plates containing serial dilution of test compounds at final concentrations of 50 μg/ml to 0.05 μg/ml in RPMI® 1640 growth medium. Untreated infected cells and untreated uninfected cells were also included as controls. The plates were incubated at 37° C./5% CO2 for 3-4 days in humidified containers. The cells were examined daily for evidence of HIV-1 induced syncytium formation. The syncytia were quantified by reference to the untreated infected controls, and the dose of compound required to reduce the cytopathic effect by 50% (ID50) was calculated.

[8] = tested on: CBMCs; test: Cell culture inhibitory dose (CCID50) in CBMCs; settings: cell counting, trypan blue exclusion, 7 days post drug treatment
Method: as §2, §3

[9] = tested on: HIV-1 HXB2D-184 M→V (3TC™ and FTC resistance mutation); test: IC50 in CBMCs with constructed mutated virus HXB2D-184; settings: Human immunodeficiency virus 1, read-out: IC50 HXB2D-184 M→V
Method: In short, viruses (HTLV-IIIB) that had initially been grown on MT-4 cells were passaged onto phytohemaglutinin-prestimulated cord blood mononuclear cells (CBM). For subsequent analysis, samples of CBM (5×10^5 cells per mL) were pretreated with various concentrations of the different compounds for 4 h and were then inoculated with CBL-grown HIV-1 at a multiplicity of infection of 1.0 in the concentration of the compound used for the pretreatment. Fresh medium, including the appropriate concentration of the compound was added three times weekly, and fresh phytohemaglutinin-prestimulated CBM (5×10^5 cells per mL) were added at 2-day intervals. The calculation of IC50 was determined on the basis of RT levels in culture fluids as described in Gao et al., (1992), J. Virol. 66: 12-19.
Determination of IC50 (μM) in Different Mutated Isolates of HIV-1 in the Presence of Different Antiviral Compounds
The procedure is similar to the procedure used in the CBM assay, with the exception that constructed virus and construted mutated virus were used.
The constructed virus HXB2D-65 correspond to the ddC resistance mutation and the constructed virus HXB2D-184 correspond to the 3TC™ and FTC resistance mutation.

[10] = Human immunodeficiency virus 1, C8166 cells, HIV-1 strain RF, syncytium formation, 3-4 days, read-out: IC50 (dose reducing the cytopathic effect by 50%, ID50)

SMILES | IC50 [1] [µg/mL] | CCID50 H9 [2] [µM] | CCID50 MT-4 [3] [µM] | CD50 (50% cytotoxic dose) [4] [µg/mL] | CD50 [5] [µg/mL] | CCID50 U937 [6] [µM] | IC50 ([7]; Human immunodeficiency virus 1, C8166, read-out: IC50 (dose reducing the cytopathic effect by 50%, ID50)) [µg/mL] | CCID50 CBMCs [8] [µM] | IC50 [9] [nM] | IC50 [7, 10] [µg/mL]
Nc1ccn([C@@H]2CO[C@H](CO)S2)c(=O)n1 [Compound #2, 2S-hydroxymethyl-4S-(cytosin-1′-yl)-1,3-oxathiolane] | 4.4 (≈ 19.2 µM) | >500 | >500 | >100 | >23 | 22 | 0.08 (≈ 0.349 µM) | 105 | 3000 | –
Nc1nc(=O)n([C@H]2CO[C@@H](CO)S2)cc1F [compound 3, 2R-hydroxymethyl-4R-(5′-fluorocytosin-1′-yl)-1,3-oxathiolane] | 6 (≈ 24.3 µM) | >500 | >500 | >100 | >23 | >500 | – | >500 | 9000 | 0.17 (≈ 0.688 µM)
Nc1nc(=O)n([C@@H]2CO[C@H](CO)S2)cc1F [compound 4, 2S-hydroxymethyl-4S-(5′-fluorocytosin-1′-yl)-1,3-oxathiolane] | 2.9 (≈ 11.7 µM) | >500 | >500 | 100 | >23 | >500 | – | >500 | 2000 | 0.03 (≈ 0.121 µM)
